Like-named read-outs stand apart in the source and are kept apart here.
How the values were obtained:
[1] = tested on: P. falciparum 3D7 parasites; experiment: P. falciparum growth inhibition assay, 1-cycle (72 h treatment), SYBR DNA staining (library screen at 2 μg/mL and dose-response); format: cell-based, Plasmodium falciparum; details: 72 h; for activity at 2 µg/mL: Plasmodium falciparum, 3D7, 72 h
[2] = tested on: P. falciparum 3D7 parasites; experiment: P. falciparum growth inhibition assay, 2-cycle (120 h treatment), delayed-death screen and dose-response; format: cell-based, Plasmodium falciparum; details: for activity at 2 µg/mL: Plasmodium falciparum, 3D7, 120 h
[3] = tested on: T. gondii RH strain (RH-Tub-eYFP) tachyzoites; experiment: microbe, parasite or virus in culture; format: cell-based, Toxoplasma gondii; details: 72 h; for percent parasite growth at 2 µg/mL: Toxoplasma gondii
[4] = P. falciparum, screen at 2 μg/mL, replicate 1
[5] = P. falciparum, screen at 2 μg/mL, replicate 2
[6] = P. falciparum, 120 h, screen at 2 μg/mL, replicate 1
[7] = P. falciparum, 120 h, screen at 2 μg/mL, replicate 2
[8] = T. gondii, screen at 2 μg/mL, replicate 1
[9] = T. gondii, screen at 2 μg/mL, replicate 2
[10] = library screen at 2 μg/mL, % growth, replicate 1
[11] = library screen at 2 μg/mL, % growth, replicate 2
[12] = library screen at 2 μg/mL, 120 h, % growth, replicate 1
[13] = library screen at 2 μg/mL, 120 h, % growth, replicate 2
[14] = T. gondii, 2 μg/mL, values are growth (% of control)

Compound | Pf_72h_%Growth_Rep1 [1, 4] | Pf_72h_%Growth_Rep2 [1, 5] | Pf_120h_%Growth_Rep1 [2, 6] | Pf_120h_%Growth_Rep2 [2, 7] | Tg_72h_%Growth_Rep1 [3, 8] | Tg_72h_%Growth_Rep2 [3, 9] | other results
CC[C@H]1OC(=O)[C@H](C)[C@@H](O[C@H]2C[C@@](C)(OC)[C@@H](O)[C@H](C)O2)[C@H](C)[C@@H](O[C@@H]2O[C@H](C)C[C@H](N(C)C)[C@H]2O)[C@](C)(O)C[C@@H](C)C(=O)[C@H](C)[C@H]2OC(=O)O[C@@]21C [Davercin, reference compound] | 70.33% | 55.54% | 17.41% | 8.68% | 45.64% | 28.61% | 1) Growth (%) at 72 h ([1]; P. falciparum, 2 μg/mL): 62.94%; 2) Growth (%) at 120 h ([2]; P. falciparum, 2 μg/mL, 120 h): 13.05%; 3) Fold change (72 h/120 h) ([2]; P. falciparum, growth at 72 h / growth at 120 h, 2 μg/mL): 4.8
COc1ccc(C[C@H]2NC[C@H](O)[C@H]2O)cc1 [Deacetylanisomycin] | 64.17% | 43.98% | 36.01% | 30.23% | 5.55% | 18.56% | –
C=Cc1cc(OC)c2c(c1)c(=O)oc1c2cc(OC)c2c(O)ccc([C@H]3O[C@H](C)[C@@H](O)[C@@H](N(C)C)[C@@H]3O)c21 [Deacetylravidomycin] | 3.21% | 5.95% | 1.87% | 7.89% | 3.62% | 4.01% | –
CCCCCCCCCC(=O)N[C@H]1CCOC1=O [Decanoyl-L-homoserine lactone] | 85.38% | 85.76% | 108.94% | 93.89% | 132.23% | 94.38% | –
CC[C@H]1C[C@]23OC(=O)/C(=C(\O)[C@@]4(CC)[C@@H]5CC[C@H](C)[C@H](O[C@H]6C[C@H](O)[C@H](NC(=O)c7[nH]c(Cl)cc7Cl)[C@@H](C)O6)[C@H]5C=C[C@H]4C/C=C/C/C(C)=C/[C@@]2(C)C=C1C(=O)O)C3=O [Decatromicin B] | 89.49% | 90.33% | 74.87% | 101.36% | 105.42% | 104.91% | –
C[C@H]1CCC/C=C/C(=O)c2c(O)cc(O)cc2CC(=O)O1 [Dehydrocurvularin, 10,11-] | 4.73% | 1.02% | 13.56% | 16.52% | 4.20% | 2.39% | –
CN1C(=O)c2ccccc2NC(=O)/C1=C/c1ccccc1 [Dehydrocyclopeptine] | 83.17% | 27.60% | 82.86% | 97.23% | 109.69% | 83.37% | –
CN(C)[C@@H]1C(O)=C(C(N)=O)C(=O)[C@@]2(O)C(O)=C3C(=O)c4c(O)ccc(Cl)c4[C@@H](O)[C@H]3C[C@@H]12 [Demeclocycline] | – | – | – | – | – | – | activity at 2 µg/mL ([1]; P. falciparum, screen at 2 μg/mL, replicate 1, read-out: Pf_72h_%Growth_Rep1): 85.8%; activity at 2 µg/mL ([1]; P. falciparum, screen at 2 μg/mL, replicate 2, read-out: Pf_72h_%Growth_Rep2): 87%; activity at 2 µg/mL ([2]; P. falciparum, 120 h, screen at 2 μg/mL, replicate 1, read-out: Pf_120h_%Growth_Rep1): 101%; activity at 2 µg/mL ([2]; P. falciparum, 120 h, screen at 2 μg/mL, replicate 2, read-out: Pf_120h_%Growth_Rep2): 94.8%; percent parasite growth at 2 µg/mL ([3]; T. gondii, screen at 2 μg/mL, replicate 1, read-out: Tg_72h_%Growth_Rep1): 157%; percent parasite growth at 2 µg/mL ([3]; T. gondii, screen at 2 μg/mL, replicate 2, read-out: Tg_72h_%Growth_Rep2): 107%
C[C@@]12c3ccc4c(c3C(=O)c3occ(c31)[C@@H](O)C[C@H]2O)CCC4=O [Demethoxyviridiol] | 73.11% | 74.92% | 76.39% | 74.74% | 264.14% | 123.20% | –
CC[C@H]1OC(=O)[C@H](C)[C@@H](O[C@H]2C[C@@](C)(OC)[C@@H](O)[C@H](C)O2)[C@H](C)[C@@H](O[C@@H]2O[C@H](C)C[C@H](NC)[C@H]2O)[C@](C)(O)C[C@@H](C)C(=O)[C@H](C)[C@@H](O)[C@]1(C)O [Demethylerythromycin A, N-] | 87.44% | 93.22% | 108.40% | 97.63% | 111.33% | 103.06% | –
C=CC(C)(C)c1[nH]c2ccccc2c1C[C@@H]1NC(=O)[C@@H]2CCCN2C1=O [Deoxybrevianamide E] | 84.72% | 85.50% | 100.44% | 95.74% | 164.73% | 103.33% | –
COc1cc([C@H]2[C@@]3(O)C[C@H]4C[C@]2(O)[C@](O)(C(=O)O4)[C@H]3C(=O)c2ccccc2)oc(=O)c1 [Deoxyenterocin] | 87.29% | 90.62% | 64.95% | 102.75% | 127.64% | 104.18% | –
CCCCCCC(C)C/C(C)=C/C(C)/C=C(C)/C=C/C(O)C(C)(C)c1cc(O)c([C@@H]2O[C@H](CO)C[C@H](O)[C@H]2O)c(=O)o1 (stereo partly drawn) [Deoxyfusapyrone] | 84.11% | 85.81% | 68.41% | 93.55% | 120.14% | 99.56% | –
CC1=C[C@H]2O[C@@H]3[C@H](O)C[C@](C)([C@@]2(CO)[C@H](O)C1=O)[C@]31CO1 [Deoxynivalenol] | – | – | – | – | – | – | Pf_72h_%Growth_Rep1 [1, 10]: -0.53%; Pf_72h_%Growth_Rep2 [1, 11]: -5.17%; Pf_120h_%Growth_Rep1 [2, 12]: 19.31%; Pf_120h_%Growth_Rep2 [2, 13]: 5.93%; Tg_72h_%Growth_Rep1 [3, 10]: -0.04%; Tg_72h_%Growth_Rep2 [3, 11]: 0.56%
O=C1NC(c2c[nH]c3ccccc23)=C/C1=C1\C(=O)Nc2ccccc21 [Deoxyviolacein] | – | – | – | – | – | – | Pf_72h_%Growth_Rep1 [1, 10]: 4.36%; Pf_72h_%Growth_Rep2 [1, 11]: 20.63%; Pf_120h_%Growth_Rep1 [2, 12]: 11.68%; Pf_120h_%Growth_Rep2 [2, 13]: 9.06%; Mean ([3]; T. gondii, 2 μg/mL, mean of both replicates, growth (% of control)): 20.63; Replicate 1 [3, 14]: 14.71; Replicate 2 [3, 14]: 26.55; Tg_72h_%Growth_Rep1 [3, 10]: 14.71%; Tg_72h_%Growth_Rep2 [3, 11]: 26.55%
CN1C(=O)[C@]23C[C@H]4C(C)(C)[C@]5(CNc6c5ccc5c6OC=CC(C)(C)O5)C[C@@]41CN2CC[C@@]3(C)O [Derquantel] | – | – | – | – | – | – | Pf_72h_%Growth_Rep1 [1, 10]: 84.92%; Pf_72h_%Growth_Rep2 [1, 11]: 84.29%; Pf_120h_%Growth_Rep1 [2, 12]: 88.90%; Pf_120h_%Growth_Rep2 [2, 13]: 91.44%; Tg_72h_%Growth_Rep1 [3, 10]: 207.28%; Tg_72h_%Growth_Rep2 [3, 11]: 97.75%
CO[C@@H]1[C@@H](O)[C@@H](O)[C@@H](Oc2ccc3c(O)c(NC(=O)c4ccc(O)c(CC=C(C)C)c4)c(=O)oc3c2C)OC1(C)C [Descarbamylnovobiocin] | – | – | – | – | – | – | Pf_72h_%Growth_Rep1 [1, 10]: 85.51%; Pf_72h_%Growth_Rep2 [1, 11]: 80.09%; Pf_120h_%Growth_Rep1 [2, 12]: 85.93%; Pf_120h_%Growth_Rep2 [2, 13]: 82.51%; Tg_72h_%Growth_Rep1 [3, 10]: 154.63%; Tg_72h_%Growth_Rep2 [3, 11]: 96.44%
CC1=CCCC(C)C(O)C(C)C(O)CCC=CC(C)C(O)C=CC(C)C(O)C(C)=CC(O[C@H]2O[C@H](CO)[C@@H](O)[C@H](O)[C@@H]2O)C(O)CC(O)CC(O)CC(O)C(C)C(O)C(C)C(O)CC(O)CC(O)C=CCC(C(C)C(O)CCCN)OC1=O (stereo partly drawn) [Desertomycin A] | – | – | – | – | – | – | Pf_72h_%Growth_Rep1 [1, 10]: 84.25%; Pf_72h_%Growth_Rep2 [1, 11]: 90.28%; Pf_120h_%Growth_Rep1 [2, 12]: 93.27%; Pf_120h_%Growth_Rep2 [2, 13]: 101.55%; Tg_72h_%Growth_Rep1 [3, 10]: 97.84%; Tg_72h_%Growth_Rep2 [3, 11]: 106.51%
